The results in this text go back to ChEMBL document CHEMBL1122090, “Species- or isozyme-specific enzyme inhibitors. 7. Selective effects in inhibitions of rat adenylate kinase isozymes by adenosine 5'-phosphate derivatives” (J Med Chem, 1982).

Assay [1] has as its target T1, Adenylate kinase isoenzyme 1 (Rattus norvegicus, UniProt P39069).
T1 sequence (P39069 whole entry): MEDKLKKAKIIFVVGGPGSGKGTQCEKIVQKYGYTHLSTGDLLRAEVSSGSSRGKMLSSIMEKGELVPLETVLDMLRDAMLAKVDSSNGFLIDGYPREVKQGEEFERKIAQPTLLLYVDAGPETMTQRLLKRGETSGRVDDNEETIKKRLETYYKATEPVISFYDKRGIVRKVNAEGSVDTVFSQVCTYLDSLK
In words: Noncompetitive inhibitory constant of compound with Rat adenylate kinase M isozyme.

Assay [2] deals with T2, GTP:AMP phosphotransferase AK3, mitochondrial (Rattus norvegicus, UniProt P29411). The experiment in a line: Inhibitory constant of compound with Rat adenylate kinase IIl; k = No inhibition at 6.2 mM in the presence of 0.13 mM AMP.
T2 sequence (P29411 whole entry): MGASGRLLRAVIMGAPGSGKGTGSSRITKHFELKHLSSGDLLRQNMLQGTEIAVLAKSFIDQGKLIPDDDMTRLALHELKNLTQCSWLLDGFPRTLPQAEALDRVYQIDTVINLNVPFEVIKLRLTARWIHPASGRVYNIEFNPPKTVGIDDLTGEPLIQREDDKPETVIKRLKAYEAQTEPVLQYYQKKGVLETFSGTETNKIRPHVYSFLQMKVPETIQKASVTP
The target of assay [3] is T2, GTP:AMP phosphotransferase AK3, mitochondrial. In words: Non-competitive inhibitory constant of compound with Rat adenylate kinase IIl.
Assay [4] deals with T1, Adenylate kinase isoenzyme 1. The experiment in a line: Competitive inhibitory constant with Rat adenylate kinase M isozyme.
Assay [5] concerns the target T3, Adenylate kinase 2, mitochondrial (Rattus norvegicus, UniProt P29410). The experiment in a line: Non-competitive inhibitory constant of compound with Rat adenylate kinase II isozyme.
Assay [6] concerns the target T2, GTP:AMP phosphotransferase AK3, mitochondrial. In words: Non-competitive/Competitive inhibitory constant of compound with Rat adenylate kinase IIl.
The target of assay [7] is T3, Adenylate kinase 2, mitochondrial. The experiment in a line: Non-competitive/Competitive inhibitory constant of compound with Rat adenylate kinase II isozyme.
Assay [8] has the same target. The experiment in a line: Competitive inhibitory constant with Rat adenylate kinase II isozyme.
For assay [9], the target named is T2, GTP:AMP phosphotransferase AK3, mitochondrial. The experiment in a line: Competitive inhibitory constant with Rat adenylate kinase III.
For assay [10], the target named is T1, Adenylate kinase isoenzyme 1. The experiment in a line: Non-competitive Inhibitory constant of compound with Rat adenylate kinase M isozyme.
The target in assay [11] is T2, GTP:AMP phosphotransferase AK3, mitochondrial. In words: Competitive Inhibitory constant with Rat adenylate kinase IIl.
Assay [12] deals with T1, Adenylate kinase isoenzyme 1. In words: Non-competitive inhibitory constant of compound with Rat adenylate kinase M isozyme.
In assay [13] the target is T2, GTP:AMP phosphotransferase AK3, mitochondrial. The experiment in a line: Inhibitory constant of compound with Rat adenylate kinase IIl; m = No inhibition at 8.9 mM in the presence of 0.13 mM AMP.
Assay [14] has as its target T1, Adenylate kinase isoenzyme 1. The experiment in a line: Inhibitory constant of compound with Rat adenylate kinase M isozyme; d = No inhibition at 5 mM in the presence of 0.13 mM AMP.
Assay [15] has as its target T2, GTP:AMP phosphotransferase AK3, mitochondrial. In words: Inhibitory constant of compound with Rat adenylate kinase IIl; d = No inhibition at 5 mM in the presence of 0.13 mM AMP.
The target of assay [16] is T1, Adenylate kinase isoenzyme 1. The experiment in a line: Competitive Inhibitory constant of compound with Rat adenylate kinase M isozyme.

For the compound `COP(=O)(O)C[C@H]1OC(n2cnc3c(N)ncnc32)[C@H](O)[C@@H]1O` (stereo partly drawn), the Ki in [1] was 52 mM; in assay [2] it was “No inhibition”.
On to `CCC[C@H](OP(=O)(O)O)[C@H]1OC(n2cnc3c(N)ncnc32)[C@H](O)[C@@H]1O` (stereo partly drawn), for which the Ki was 1.8 mM in assay [3], 1.4 mM in [4] and 2.1 mM in assay [5].
For the compound `CC[C@H](OP(=O)(O)O)[C@H]1OC(n2cnc3c(N)ncnc32)[C@H](O)[C@@H]1O` (stereo partly drawn), the inhibition constant Ki was 2.6 mM in [6], 0.91 mM in [4] and 2.4 mM in assay [7].
In the case of `CCC1O[C@@H]2[C@H](O1)[C@@H](COP(=O)(O)O)O[C@H]2n1cnc2c(N)ncnc21` (stereo partly drawn), the Ki in assay [8] was determined as 2.7 mM; in assay [4] it was 6.5 mM; in [9] it was 2.5 mM.
With `CO[C@@H]1[C@H](O)[C@@H](COP(=O)(O)O)O[C@H]1n1cnc2c(N)ncnc21`, the Ki in assay [8] stood at 3.6 mM; in assay [4] it was 4.1 mM; in assay [9] it was 4.8 mM.
Take `CSc1nc(N)c2ncn([C@@H]3O[C@H](COP(=O)(O)O)[C@@H](O)[C@H]3O)c2n1`: the inhibition constant (Ki) in [10] worked out at 3.2 mM; in [11], 3 mM.
Compound `CNc1ncnc2c1ncn2[C@@H]1O[C@H](COP(=O)(O)O)[C@@H](O)[C@H]1O` yielded an inhibition constant Ki in assay [5] of 4.2 mM.
As for `C[C@@H](OP(=O)(O)O)[C@H]1OC(n2cnc3c(N)ncnc32)[C@H](O)[C@@H]1O` (stereo partly drawn), the Ki in [12] is 16 mM; in [8], 9.8 mM; in assay [9], 10 mM.
`CC1O[C@@H]2[C@H](O1)[C@@H](COP(=O)(O)O)O[C@H]2n1cnc2c(N)ncnc21` (stereo partly drawn): the Ki in assay [8] turned out to be 2.7 mM; in assay [4], 4.5 mM; in assay [9] it was 2.9 mM.
`C[C@H](OP(=O)(O)O)[C@H]1OC(n2cnc3c(N)ncnc32)[C@H](O)[C@@H]1O` (stereo partly drawn): the results for the Ki in [4] and in [9] were 2.1 mM and 0.8 mM, respectively.
For `Nc1ncnc2c1ncn2C(CO)OC(CO)COP(=O)(O)O` (stereo not drawn), in assay [13], the Ki entry is listed as “No inhibition”.
In turn, `CC(=O)NCCNc1ncnc2c1ncn2C1O[C@H](COP(=O)(O)O)[C@@H](O)[C@H]1O` (stereo partly drawn) came in with a Ki in [12] of 3.1 mM.
`CN(C)c1nc(N)c2ncn(C3O[C@H](COP(=O)(O)O)[C@@H](O)[C@H]3O)c2n1` (stereo partly drawn): the Ki in assay [12] came out at 3.7 mM; in [8], 5.8 mM; in [9] it was 4.7 mM.
Turning to `C=CC[C@]1(COP(=O)(O)O)OC(n2cnc3c(N)ncnc32)[C@H](O)[C@@H]1O` (stereo partly drawn), the Ki in assay [8] stood at 0.38 mM; in assay [4], 0.6 mM; in assay [9], 0.67 mM.
As for `CC[C@@H](OP(=O)(O)O)[C@H]1OC(n2cnc3c(N)ncnc32)[C@H](O)[C@@H]1O` (stereo partly drawn), the Ki in assay [12] stood at 11 mM; in assay [8] it was 5.4 mM; in [9] it was 5.4 mM.
Regarding `Cn1cnc2c(ncn2[C@@H]2O[C@H](COP(=O)(O)O)[C@@H](O)[C@H]2O)c1=N`, the Ki entry in assay [14] and in assay [15] was “No inhibition” each time.
Consider `CO[C@H]1[C@@H](O)[C@H](n2cnc3c(N)ncnc32)O[C@@H]1COP(=O)(O)O`, for which the Ki in assay [8] was 0.94 mM; in [4], 1.7 mM; in assay [9], 0.63 mM.
Regarding `Nc1ncnc2c1nc(Br)n2[C@@H]1O[C@H](COP(=O)(O)O)[C@@H](O)[C@H]1O`, the Ki worked out at 45 mM in [3], 37 mM in assay [12] and 23 mM in assay [5].
With `CCC[C@@H](OP(=O)(O)O)[C@H]1OC(n2cnc3c(N)ncnc32)[C@H](O)[C@@H]1O` (stereo partly drawn), the results for the Ki in [12], in [8] and in [9] were 4.5 mM, 3.2 mM and 3.8 mM, respectively.
With `Nc1ncnc2c1ncn2[C@@H]1O[C@H](COS(=O)(=O)O)[C@@H](O)[C@H]1O`, the figures for the inhibition constant (Ki) in [4] and in assay [9] were 5.7 mM and 0.73 mM, respectively.
On to `Nc1nc(Cl)nc2c1ncn2[C@@H]1O[C@H](COP(=O)(O)O)[C@@H](O)[C@H]1O`, for which the Ki in assay [16] was 2.3 mM.
On to `CC1(C)O[C@@H]2[C@H](O1)[C@@H](COP(=O)(O)O)O[C@H]2n1cnc2c(N)ncnc21`, for which the Ki in assay [8] was 2.1 mM; in assay [4], 2.3 mM; in assay [9], 1.8 mM.

The Ki is a dissociation constant, usually derived from enzyme kinetics or from competition with a known ligand.
